Holding throughout (type): biochemical
Assay [1] has as its target T1, Aurora 2 (Homo sapiens, UniProt O14965).
T1 construct: A complete recombinant Aurora 2 enzyme, the N-terminal end of which was labeled with histidine; His tag (N); made in house; host or cells: E. coli
T1 sequence (O14965 1-403): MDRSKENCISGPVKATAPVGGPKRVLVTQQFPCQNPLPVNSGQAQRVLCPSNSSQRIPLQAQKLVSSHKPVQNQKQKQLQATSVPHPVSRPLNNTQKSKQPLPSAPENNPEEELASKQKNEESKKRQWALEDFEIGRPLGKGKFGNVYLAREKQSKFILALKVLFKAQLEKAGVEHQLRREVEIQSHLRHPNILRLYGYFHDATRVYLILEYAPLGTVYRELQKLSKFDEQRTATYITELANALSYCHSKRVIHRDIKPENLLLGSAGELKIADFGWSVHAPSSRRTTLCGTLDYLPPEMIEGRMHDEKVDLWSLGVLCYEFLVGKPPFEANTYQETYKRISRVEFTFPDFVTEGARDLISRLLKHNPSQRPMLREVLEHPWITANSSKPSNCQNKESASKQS
Nature of the assay: Aurora 2 kinase radioactivity scintillation test. As for the experimental part:
The inhibitory effect of the compounds toward the kinase Aurora 2 is determined via a radioactivity scintillation test.
A complete recombinant Aurora 2 enzyme, the N-terminal end of which was labeled with histidine, was expressed in E. coli and purified to a quality close to homogeneity.
The C-terminal fragment (Q1687-H2101) of an NuMA (nuclear protein which is associated with the Mitotic Apparatus) expressed in E. coli, and the N-terminal end of which was labeled with histidine, was purified by chromatography with nickel chelate and used as substrate in the Aurora 2 kinase test.
The kinase activity of Aurora 2 is measured by scintillation on a microplate saturated with nickel chelate (New England Nuclear, SMP107 model). Each well contains 100 μl of the following solution: 0.02 μM of Aurora 2; 0.5 μM of NuMA substrate; 1 μM of ATP supplemented with 0.5 μCi of ATP-[^33P]. The solutions are incubated for 45 minutes at 37° C. The test buffer is then removed and the wells are rinsed twice with 300 μl of kinase buffer. The radioactivity is measured in each well using a Packard Model Top Count NXT machine.
The background noise is measured in duplicate in wells containing the radioactive ATP alone containing buffered kinase treated in the same manner as for the other samples.
The activity of the control is determined by measuring in duplicate the radioactivity in the complete test mixture (ATP, Aurora 2 and NuMA substrate), in the absence of test compound.
The inhibition of the activity of Aurora 2 with a compound of the invention is expressed as a percentage of inhibition of the control activity in the absence of test compound. Staurosporin is added to each plate as inhibition control.

For assay [2], the target named is CDK4/cyclin D1 (Homo sapiens, UniProt P11802). Nature of the assay: CDK4/cyclin D1 Flashplate test in 96-well format. The method, boiled down:
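CDK4-HA/cyclin D1-(His)6 complex from coinfected Sf9 cells, 25 nM final, phosphorylating 1.8 μM biotinylated pRb peptide in HEPES pH 7.5 with MgCl2, DTT and [γ-33P]ATP at 30 °C. 33P incorporation captured on streptavidin Flashplates and read by scintillation counting; IC50 from seven-point inhibitor dilutions.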

Assay [3] addresses CDK2/cyclin E (Homo sapiens, UniProt P24941). In words: CDK2/cyclin E Flashplate test in 96-well format. As to conditions: read-out: CDK2 IC50. Put shortly: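 CDK2/cyclin E-(His)6 from baculovirus-coinfected Sf21 cells was IMAC-purified. Kinase reaction used biotinylated pRb peptide (10 μM final), [γ-33P]ATP in HEPES pH 7.5 with Mg2+ and DTT, at 30 °C in streptavidin Flashplates. 33P incorporation was scintillation counted and IC50 determined.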

Each structure is given as a SMILES string.

Usually IC50 stands for the concentration needed to halve the response being measured.

CDK4/cyclin D1, sequence (P11802 whole entry): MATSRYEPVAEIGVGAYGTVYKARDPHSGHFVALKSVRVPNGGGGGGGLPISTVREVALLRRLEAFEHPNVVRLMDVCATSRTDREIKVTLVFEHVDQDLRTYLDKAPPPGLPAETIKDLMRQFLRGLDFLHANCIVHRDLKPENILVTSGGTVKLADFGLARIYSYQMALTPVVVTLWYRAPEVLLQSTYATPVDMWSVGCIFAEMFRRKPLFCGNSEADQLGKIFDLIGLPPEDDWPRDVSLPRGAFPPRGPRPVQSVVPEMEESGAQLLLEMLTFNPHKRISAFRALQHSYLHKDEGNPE
CDK4/cyclin D1, sequence (P24385 whole entry partner): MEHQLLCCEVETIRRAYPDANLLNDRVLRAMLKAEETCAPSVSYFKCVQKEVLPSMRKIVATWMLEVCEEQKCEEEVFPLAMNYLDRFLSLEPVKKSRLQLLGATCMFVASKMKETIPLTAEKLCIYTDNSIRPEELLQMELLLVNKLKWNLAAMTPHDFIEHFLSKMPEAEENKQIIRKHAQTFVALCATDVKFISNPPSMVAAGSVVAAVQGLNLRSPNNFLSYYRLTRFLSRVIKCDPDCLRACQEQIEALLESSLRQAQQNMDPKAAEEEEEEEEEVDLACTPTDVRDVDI

Regarding `O=C(CCC1CCNCC1)Nc1nc2ccc(OS(=O)(=O)c3cccs3)cc2s1` [Example 33a, Thiophene-2-sulfonic acid 2-(3-piperid-4-ylpropionylamino)benzothiazol-6-yl ester; compound with trifluoroacetic acid], the half-maximal inhibitory concentration (IC50) was 0.436 µM in assay [1], greater than 10 µM in assay [2] and 3.24 µM in assay [3].

Take `CCN(CC)CCC(=O)Nc1nc2ccc(OS(=O)(=O)c3cccs3)cc2s1` [Example 33g, Thiophene-2-sulfonic acid 2-(3-diethyl-aminopropionylamino)benzothiazol-6-yl ester; compound with trifluoroacetic acid]: the IC50 was 1.9 µM in assay [1], greater than 10 µM in assay [2] and 5 µM in assay [3].

For the origin of these results see patent US7632952B2, “Benzothiazoles and the use thereof as medicaments” (Aventis Pharma S.A., priority 2004, dated 2009).
